According to patent US8618300B2, “Indolizine inhibitors of leukotriene production” (Boehringer Ingelheim International GmbH, priority 2008, dated 2013):

Molecular target: T1, recombinant human FLAP protein (Homo sapiens, UniProt P20292)
T1 construct: made in house; host or cells: Sf9 insect cells (100,000 x g membrane pellet)
T1 sequence (P20292 1-161): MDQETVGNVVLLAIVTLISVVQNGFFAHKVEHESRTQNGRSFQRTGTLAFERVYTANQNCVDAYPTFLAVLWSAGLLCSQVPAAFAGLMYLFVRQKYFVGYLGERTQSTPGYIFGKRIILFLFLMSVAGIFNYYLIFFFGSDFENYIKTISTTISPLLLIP
Experiment: FLAP binding assay, Scintillation Proximity Assay, displacement of [125I]L-691,831
Details: read-out: hFLAP binding IC50
Method: Compounds are assessed for the ability to bind to FLAP in a binding assay that measures compound-specific displacement of an iodinated (^1251) FLAP inhibitor via a Scintillation Proximity Assay format (adapted from S. Charleson et al., Mol. Pharmacol., 1992, 41, 873-879).
Cell pellets produced from sf9 insect cells expressing recombinant human FLAP protein are resuspended in buffer A [15 mM Tris-HCl (pH 7.5), 2 mM MgCl2, 0.3 mM EDTA, 1 mM PMSF]. The cells are lysed with a Dounce homogenizer and the material is centrifuged at 10,000×g for 10 minutes. The supernatant is then collected and centrifuged at 100,000×g for 60 minutes. To prepare membrane protein for an assay, an aliquot of the 100,000×g pellet is resuspended in 1 ml of buffer A, Dounce homogenized, and finally subjected to polytron mixing (30 seconds). Membrane protein (25 μl, 5 μg) is mixed with WGA SPA beads (Amersham) and stirred for 1 h. To an assay plate (Perkin Elmer FlexiPlate) is added 25 μl of test compound prepared in Binding buffer [100 mM Tris (pH 7.5), 140 mM NaCl, 5% glycerol, 2 mM EDTA, 0.5 mM TCEP, 0.05% Tween 20], 25 μl of [^125I]L-691,831 (an iodinated analog of MK-591, Charleson et al. Mol. Pharmacol., 41, 873-879, 1992) and finally 50 μl of the bead/protein mixture. (final concentrations: beads, 200 μg/well; protein, 5 μg/well; [^125I] probe, 0 08 nM/well (17 nCi/well). The plates are shaken for 2 h before reading on a Microbeta plate reader. Non-specific binding is determined by the addition of 10 μM cold L-691,831 compound.

Row | IC50 | SMILES
1 | 4 nM | CC(C)(C)C(=O)c1c(CC(C)(C)C(=O)O)c(C(=O)c2ccc(Cl)cc2)n2ccc(OCc3nc4ccccc4s3)cc12
2 | 1 nM | COc1ccc(C(=O)c2c(CC(C)(C)C(=O)O)c(C(=O)C(C)(C)C)c3cc(OCc4ccc5ccccc5n4)ccn23)cc1 [3-[1-(2,2-dimethylpropanoyl)-3-[(4-methoxyphenyl)carbonyl]-7-(quinolin-2-ylmethoxy)indolizin-2-yl]-2,2-dimethylpropanoic acid]
3 | 8 nM | COc1cccc(COc2ccn3c(C(=O)c4ccc(Cl)cc4)c(CC(C)(C)C(=O)O)c(C(=O)C(C)(C)C)c3c2)n1 [3-{3-[(4-chlorophenyl)carbonyl]-1-(2,2-dimethylpropanoyl)-7-[(6-methoxypyridin-2-yl)methoxy]indolizin-2-yl}-2,2-dimethylpropanoic acid]
4 | 111 nM | Cc1nc(COc2ccn3c(C(=O)c4ccc(Cl)c(Cl)c4)c(CC(C)(C)C(=O)O)c(C(=O)C(C)(C)C)c3c2)cs1 [3-{3-[(3,4-dichlorophenyl)carbonyl]-1-(2,2-dimethylpropanoyl)-7-[(2-methyl-1,3-thiazol-4-yl)methoxy]indolizin-2-yl}-2,2-dimethylpropanoic acid]
5 | 2 nM | COc1ccc(C(=O)c2c(CC(C)(C)C(N)=O)c(C(=O)C(C)(C)C)c3cc(OCc4cccc(N)n4)ccn23)cc1 [3-{7-[(6-aminopyridin-2-yl)methoxy]-1-(2,2-dimethylpropanoyl)-3-(4-methoxybenzoyl)indolizin-2-yl}-2,2-dimethylpropanamide]
6 | 1 nM | Cc1csc(COc2ccn3c(C(=O)c4ccc(Cl)c(Cl)c4)c(CC(C)(C)C(=O)O)c(C(=O)C(C)(C)C)c3c2)n1 [3-{3-[(3,4-dichlorophenyl)carbonyl]-1-(2,2-dimethylpropanoyl)-7-[(4-methyl-1,3-thiazol-2-yl)methoxy]indolizin-2-yl}-2,2-dimethylpropanoic acid]
7 | 1 nM | COc1ccc(C(=O)c2c(CC(C(=O)O)C(C)C)c(C(=O)C(C)(C)C)c3cc(OCc4nc5ccccc5s4)ccn23)cc1 (stereo not drawn) [2-({7-(1,3-benzothiazol-2-ylmethoxy)-1-(2,2-dimethylpropanoyl)-3-[(4-methoxyphenyl)carbonyl]indolizin-2-yl}methyl)-3-methylbutanoic acid]
8 | 3 nM | COc1ccc(C(=O)c2c(CC(C(=O)O)C(C)C)c(C(=O)C(C)(C)C)c3cc(OCc4cccc(C)n4)ccn23)cc1 (stereo not drawn) [2-({1-(2,2-dimethylpropanoyl)-3-[(4-methoxyphenyl)carbonyl]-7-[(6-methylpyridin-2-yl)methoxy]indolizin-2-yl}methyl)-3-methylbutanoic acid]
9 | 9 nM | CC(C)(C)C(=O)c1c(CC(C)(C)C(=O)O)c(C(=O)c2ccc(Cl)cc2)c2ccc(OCc3nc4ccccc4s3)cn12 [3-[6-(1,3-benzothiazol-2-ylmethoxy)-1-[(4-chlorophenyl)carbonyl]-3-(2,2-dimethylpropanoyl)indolizin-2-yl]-2,2-dimethylpropanoic acid]
10 | 38 nM | Cc1nc(COc2ccc3c(C(=O)c4ccc(Cl)cc4)c(CC(C)(C)C(=O)O)c(C(=O)C(C)(C)C)n3c2)cs1 [3-{1-[(4-chlorophenyl)carbonyl]-3-(2,2-dimethylpropanoyl)-6-[(2-methyl-1,3-thiazol-4-yl)methoxy]indolizin-2-yl}-2,2-dimethylpropanoic acid]
11 | 7 nM | CCCC(Cc1c(C(=O)C(C)(C)C)c2cc(OCc3csc(C)n3)ccn2c1C(=O)c1ccc(OC)cc1)C(=O)O (stereo not drawn) [2-({1-(2,2-dimethylpropanoyl)-3-[(4-methoxyphenyl)carbonyl]-7-[(2-methyl-1,3-thiazol-4-yl)methoxy]indolizin-2-yl}methyl)pentanoic acid]
12 | 18 nM | Cc1nc(COc2ccn3c(C(=O)c4ccc(Cl)cc4)c(CC(C)(C)C(=O)O)c(C(=O)C(C)(C)C)c3c2)cs1 [3-{3-[(4-chlorophenyl)carbonyl]-1-(2,2-dimethylpropanoyl)-7-[(2-methyl-1,3-thiazol-4-yl)methoxy]indolizin-2-yl}-2,2-dimethylpropanoic acid]
13 | 4 nM | Cc1nc(COc2ccc3c(C(=O)c4ccc(Cl)cc4)c(CC(C)(C)C(=O)NS(C)(=O)=O)c(C(=O)C(C)(C)C)n3c2)cs1 [3-{1-[(4-chlorophenyl)carbonyl]-3-(2,2-dimethylpropanoyl)-6-[(2-methyl-1,3-thiazol-4-yl)methoxy]indolizin-2-yl}-2,2-dimethyl-N-(methylsulfonyl)propanamide]
14 | 2 nM | CCCC(Cc1c(C(=O)C(C)(C)C)c2cc(OCc3cccc(C)n3)ccn2c1C(=O)c1ccc(Cl)c(Cl)c1)C(=O)O (stereo not drawn) [2-({3-[(3,4-dichlorophenyl)carbonyl]-1-(2,2-dimethylpropanoyl)-7-[(6-methylpyridin-2-yl)methoxy]indolizin-2-yl}methyl)pentanoic acid]
15 | 3 nM | COc1ccc(C(=O)c2c(CC(C)(C)C(=O)O)c(C(=O)C(C)(C)C)c3cc(OCc4nc(C)cs4)ccn23)cc1 [3-{1-(2,2-dimethylpropanoyl)-3-[(4-methoxyphenyl)carbonyl]-7-[(4-methyl-1,3-thiazol-2-yl)methoxy]indolizin-2-yl}-2,2-dimethylpropanoic acid]
16 | 99 nM | CC(C)(C)C(=O)c1c(CC(C)(C)C(=O)O)c(C(=O)c2ccc(Br)cc2)n2ccc(OCc3ccccn3)cc12 [3-{3-[(4-bromophenyl)carbonyl]-1-(2,2-dimethylpropanoyl)-7-(pyridin-2-ylmethoxy)indolizin-2-yl}-2,2-dimethylpropanoic acid]
17 | 14 nM | CC(C)(C)C(=O)c1c(CC(C)(C)C(=O)O)c(C(=O)c2ccc(Cl)cc2)c2ccc(OCc3ccc4ccccc4n3)cn12
18 | 8 nM | Cc1cccc(COc2ccc3c(C(=O)c4ccc(Cl)cc4)c(CC(C)(C)C(=O)O)c(C(=O)C(C)(C)C)n3c2)n1 [3-{1-[(4-chlorophenyl)carbonyl]-3-(2,2-dimethylpropanoyl)-6-[(6-methylpyridin-2-yl)methoxy]indolizin-2-yl}-2,2-dimethylpropanoic acid]
19 | 85 nM | CC(C)(C)CC(=O)c1c(CC(C)(C)C(=O)O)c(C(=O)c2ccc(Cl)cc2)n2ccc(OCc3ccc4ccccc4n3)cc12 [3-{3-[(4-chlorophenyl)carbonyl]-1-(3,3-dimethylbutanoyl)-7-(quinolin-2-ylmethoxy)indolizin-2-yl}-2,2-dimethylpropanoic acid]
20 | 101 nM | Cc1nc(COc2ccn3c(C(=O)c4ccccc4)c(CC(C)(C)C(=O)O)c(C(=O)C(C)(C)C)c3c2)cs1 [3-[1-(2,2-dimethylpropanoyl)-7-[(2-methyl-1,3-thiazol-4-yl)methoxy]-3-(phenylcarbonyl)indolizin-2-yl]-2,2-dimethylpropanoic acid]
21 | 17 nM | Cc1cccc(COc2ccn3c(C(=O)c4ccc(Cl)cc4)c(CC(C)(C)C(=O)O)c(C(=O)C(C)(C)C)c3c2)n1 [3-{3-[(4-chlorophenyl)carbonyl]-1-(2,2-dimethylpropanoyl)-7-[(6-methylpyridin-2-yl)methoxy]indolizin-2-yl}-2,2-dimethylpropanoic acid]
22 | 118 nM | CC(C)(C)C(=O)c1c(CC(C)(C)C(=O)O)c(C(=O)c2ccc(Cl)cc2)n2ccc(OCc3cscn3)cc12 [3-{3-[(4-chlorophenyl)carbonyl]-1-(2,2-dimethylpropanoyl)-7-(1,3-thiazol-4-ylmethoxy)indolizin-2-yl}-2,2-dimethylpropanoic acid]
23 | 25 nM | CC(C)(C)C(=O)c1c(CC(C)(C)C(=O)O)c(C(=O)c2ccc(Cl)cc2)n2ccc(OCc3nccs3)cc12 [3-{3-[(4-chlorophenyl)carbonyl]-1-(2,2-dimethylpropanoyl)-7-(1,3-thiazol-2-ylmethoxy)indolizin-2-yl}-2,2-dimethylpropanoic acid]
24 | 44 nM | CC(C)(C)C(=O)c1c(CC(C)(C)C(=O)O)c(C(=O)c2ccc(Cl)cc2)n2ccc(OCc3ccccn3)cc12 [3-{3-[(4-chlorophenyl)carbonyl]-1-(2,2-dimethylpropanoyl)-7-(pyridin-2-ylmethoxy)indolizin-2-yl}-2,2-dimethylpropanoic acid]
25 | 13 nM | COc1ccc(C(=O)c2c(CC(C(=O)O)C(C)C)c(C(=O)C(C)(C)C)c3cc(OCc4csc(C)n4)ccn23)cc1 (stereo not drawn) [2-({1-(2,2-dimethylpropanoyl)-3-[(4-methoxyphenyl)carbonyl]-7-[(2-methyl-1,3-thiazol-4-yl)methoxy]indolizin-2-yl}methyl)-3-methylbutanoic acid]
26 | 1 nM | COc1ccc(C(=O)c2c(CC(C(=O)O)C(C)C)c(C(=O)C(C)(C)C)c3cc(OCc4ccc5ccccc5n4)ccn23)cc1 (stereo not drawn) [2-{[1-(2,2-dimethylpropanoyl)-3-[(4-methoxyphenyl)carbonyl]-7-(quinolin-2-ylmethoxy)indolizin-2-yl]methyl}-3-methylbutanoic acid]
27 | 232 nM | COc1ccc(-c2ccc(C(=O)c3c(CC(C)(C)C(=O)O)c(C(=O)C(C)(C)C)c4cc(C(C)C)ccn34)cc2)cn1
